Among the data in ChEMBL document CHEMBL1143548, “Synthesis and evaluation of potential inhibitors of eIF4E cap binding to 7-methyl GTP” (Bioorg Med Chem Lett, 2005) are IC50 values, retold here.

Each structure is given as a SMILES string. Where only a bound is given, the exact number is not on record here.

Sequence of Eukaryotic translation initiation factor 4E (P06730 whole entry): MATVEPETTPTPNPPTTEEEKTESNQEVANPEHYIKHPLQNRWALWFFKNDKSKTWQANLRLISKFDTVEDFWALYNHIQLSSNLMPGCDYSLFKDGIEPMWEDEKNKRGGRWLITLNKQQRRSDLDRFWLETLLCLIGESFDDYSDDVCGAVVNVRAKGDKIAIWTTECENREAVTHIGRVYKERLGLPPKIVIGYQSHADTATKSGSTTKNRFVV

The assay has as its target Eukaryotic translation initiation factor 4E (Homo sapiens, UniProt P06730). The experiment in a line: Inhibitory concentration against 7-methyl-GTP binding to eukaryotic translation initiation factor 4E.
For `C=CC[n+]1cn([C@@H]2O[C@H](COP(=O)([O-])O)C(O)[C@H]2O)c2nc(N)[nH]c(=O)c21` (single isomer, unassigned), the IC50 stood at 220 µM.

For `CN(C)c1nc2c(ccn2[C@@H]2O[C@H](CO)C(O)[C@H]2O)c(=O)[nH]1` (single isomer, unassigned), the IC50 was > 400 µM.

On to `Nc1nc2c(ncn2[C@@H]2O[C@H](CO[PH](=O)O)C(O)[C@H]2O)c(=O)[nH]1` (single isomer, unassigned), for which the IC50 was 130 µM.

Regarding `C[n+]1cn([C@@H]2O[C@H](CO)[C@@H](O)[C@H]2O)c2nc(N)nc([S-])c21`, the IC50 was > 400 µM.

For `C[n+]1cn([C@@H]2O[C@H](CO)C(O)[C@H]2O)c2nc(N)[nH]c(=O)c21` (single isomer, unassigned), the 50% inhibitory concentration (IC50) was > 400 µM.

With `C[n+]1cn([C@H]2CC(O)[C@@H](COP(=O)(O)OP(=O)([O-])OP(=O)(O)O)O2)c2nc(N)[nH]c(=O)c21` (single isomer, unassigned), the IC50 is 4 µM.

For the compound `Cn1cnc2c(c1=O)[n+](C)cn2[C@@H]1O[C@H](CO)[C@@H](O)[C@H]1O`, the IC50 is > 400 µM.

In the case of `CC[n+]1cn([C@@H]2O[C@H](COP(=O)([O-])O)C(O)[C@H]2O)c2nc(N)[nH]c(=O)c21` (single isomer, unassigned), the IC50 amounted to 100 µM.

The compound `Nc1nc2c(c(=O)[nH]1)[n+](Cc1ccccc1)cn2[C@@H]1O[C@H](CO[PH](=O)[O-])[C@@H](O)[C@H]1O` came in with an IC50 of 200 µM.

With `Cc1ccc(SNc2nc3c(ncn3[C@@H]3O[C@H](CO)C(O)[C@H]3O)c(=O)[nH]2)cc1` (single isomer, unassigned), the IC50 is > 400 µM.

On to `CNc1nc2c(ncn2[C@@H]2O[C@H](CO)C(O)[C@H]2O)c(=O)[nH]1` (single isomer, unassigned), for which the IC50 was > 400 µM.

A word on the IC50: it is the concentration needed to halve the response being measured. Low values mean greater potency in that assay, high ones weaker potency in that assay.
